The record followed here is patent US11891385B1, “1-cyclopropyl-7-(4-((5-(3,5-dichlorobenzylideneamino)-2-thioxo-1,3,4-thiadiazol-3(2H)-yl)methyl)piperazin-1-yl)-6-fluoro-4-oxo-1,4-dihydroquinoline-3-carboxylic aci d as an anti-inflammatory compound” (KING FAISAL UNIVERSITY, priority 2023, dated 2024).

The target in the series is Bovine serum albumin (Bos taurus, UniProt P02769). Nature of the series: Bovine Serum Albumin (BSA) assay, in-vitro protein denaturation. Format: biochemical. The conditions noted are these: for inhibition at 20 µg/mL / inhibition at 40 µg/mL / inhibition at 60 µg/mL / inhibition at 80 µg/mL / inhibition at 100 µg/mL: 72° C. for 10 minutes, turbidity at 660 nm. As to the method: Bovine Serum Albumin Assay (BSA) In vitro-inflammatory activities of the tested samples were determined using a modified method of the BSA assay reported by Williams et al. BSA solution (0.4%, w/v) was prepared in Tris Buffered Saline. The pH was adjusted to 6.4 with glacial acetic acid. Different dilutions of 20, 40, 60, 80, and 100 μg/mL of 1-cyclopropyl-7-(4-((5-(3,5-dichlorobenzylideneamino)-2-thioxo-1,3,4-thiadiazol-3(2H)-yl)methyl)piperazin-1-yl)-6-fluoro-4-oxo-1,4-dihydroquinoline-3-carboxylic acid (IV) and the stock solutions were added to test tubes containing 1 mL of 0.4%, w/v BSA buffer solution. Both negative (solvent) and positive (aspirin) controls were assayed in a similar manner. The solutions were then heated in a water bath at 72° C. for 10 minutes, and cooled for 20 minutes under laboratory conditions. The turbidity of the solutions (level of protein precipitation) was measured at 660 nm in Spectrophotometer (V-770 UV-Visible/NIR Spectrophotometer). The percentage inhibition of precipitation (protein denaturation) was determined relative to the negative control using the following equation: [formula] [formula] Anti-Inflammatory Activity

Like-named read-outs stand apart in the source and are kept apart here.

Chain of Bovine serum albumin (P02769 25-607): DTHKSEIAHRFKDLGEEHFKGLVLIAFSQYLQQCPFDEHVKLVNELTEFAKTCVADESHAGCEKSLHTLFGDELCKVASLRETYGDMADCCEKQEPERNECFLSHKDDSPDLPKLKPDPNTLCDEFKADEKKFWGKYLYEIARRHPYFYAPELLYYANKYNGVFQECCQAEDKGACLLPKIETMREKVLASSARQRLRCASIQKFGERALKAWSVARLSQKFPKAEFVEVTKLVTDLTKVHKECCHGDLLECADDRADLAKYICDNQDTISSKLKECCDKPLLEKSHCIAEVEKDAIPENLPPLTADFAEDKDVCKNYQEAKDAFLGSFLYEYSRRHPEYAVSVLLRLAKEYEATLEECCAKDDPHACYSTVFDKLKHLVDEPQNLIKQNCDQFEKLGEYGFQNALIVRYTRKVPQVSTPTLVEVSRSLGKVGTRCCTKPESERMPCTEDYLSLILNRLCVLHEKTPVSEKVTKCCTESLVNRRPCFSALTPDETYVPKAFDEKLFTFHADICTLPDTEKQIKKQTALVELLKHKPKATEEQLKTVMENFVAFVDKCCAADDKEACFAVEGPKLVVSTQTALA

For `O=C(O)c1cn(C2CC2)c2cc(N3CCN(Cn4nc(/N=C/c5cc(Cl)cc(Cl)c5)sc4=S)CC3)c(F)cc2c1=O` [IV, 1-cyclopropyl-7-(4-((5-(3,5-dichlorobenzylideneamino)-2-thioxo-1,3,4-thiadiazol-3(2H)-yl)methyl)piperazin-1-yl)-6-fluoro-4-oxo-1,4-dihydroquinoline-3-carboxylic acid], for the setting “BSA protein denaturation”, the “in vitro anti-inflammatory activity (result in words)” value is recorded as “considerable anti-inflammatory effect”. Moreover, where the note is “bovine, 10 min, 100 μg/mL, pH 6.4”, the “% Inhibition of protein denaturation (Bovine serum albumin)” value worked out at 83.77%. Further, the inhibition at 20 µg/mL (read-out: % Inhibition of protein denaturation (Bovine serum albumin), concentration 20 μg/ml) turned out to be 58%. For the same compound, the inhibition at 40 µg/mL (read-out: % Inhibition of protein denaturation (Bovine serum albumin), concentration 40 μg/ml) is 68.7%. The inhibition at 60 µg/mL (read-out: % Inhibition of protein denaturation (Bovine serum albumin), concentration 60 μg/ml) came out at 73.2%. Besides, the inhibition at 80 µg/mL (read-out: % Inhibition of protein denaturation (Bovine serum albumin), concentration 80 μg/ml) came out at 80%. The inhibition at 100 µg/mL (read-out: % Inhibition of protein denaturation (Bovine serum albumin), concentration 100 μg/ml) came out at 87.6%.

For the compound `CC(=O)Oc1ccccc1C(=O)O` [aspirin, reference compound], the inhibition at 20 µg/mL (concentration 20 μg/ml, read-out: % Inhibition of protein denaturation (Bovine serum albumin)) was 71%. In addition, the inhibition at 40 µg/mL (concentration 40 μg/ml, read-out: % Inhibition of protein denaturation (Bovine serum albumin)) came out at 77.5%. Also, the inhibition at 60 µg/mL (concentration 60 μg/ml, read-out: % Inhibition of protein denaturation (Bovine serum albumin)) came out at 82.6%. The inhibition at 80 µg/mL (concentration 80 μg/ml, read-out: % Inhibition of protein denaturation (Bovine serum albumin)) was 85.5%. For the same compound, under “concentration 100 μg/ml, read-out: % Inhibition of protein denaturation (Bovine serum albumin)”, the inhibition at 100 µg/mL was 90.8%.
